Laboratory results taken from patent US20190048052A1, “ANTI-MICROBIAL PEPTIDES AND COATINGS” (Board of Regents of the University of Nebraska, priority 2016, published 2019).
≈ marks a conversion by molar mass, not a printed value. Read-outs that look alike come from different tables or passages of the source. Values belong to the molecule of their own block, whether it stands above or below them. Non-standard residues stand in square brackets, D forms with d. Residues, ends and D or L forms follow the SMILES beside them.

What was measured:
A. baumannii B2367-12 = type: cell-based, Acinetobacter baumannii; details: B2367-12
Procedure: (§1) Bacterial strains used in this study included Enterococcus faecium ATCC51559, Staphylococcus aureus USA300 LAC, Klebsiella pneumoniae ATCC 13883, Acinetobacter baumannii B2367-12, Pseudomonas aeruginosa PAO1, Enterobacter cloacae B2366-12 and Escherichia coli ATCC 25922, wherein the first six constituting the ESKAPE pathogens. Tryptic soy broth (TSB) for bacterial growth was obtained from BD Bioscience (Sparks, Md.).
(§2) The antibacterial activity of peptides was evaluated using a standard broth microdilution protocol as described (Wang et al. (2012) Antimicrob. Agents Chemother., 56:845-856). In brief, 5 μl of each bacterium (stored at −80° C.) were inoculated into TSB medium (2 ml) and grown overnight. A second inoculation was made in the morning by delivering 10 μl of the overnight culture to a fresh TSB medium. After 2-3 hours growth at 37° C., 225 rpm, logarithmic phase bacterial cultures (OD600≈0.5) were diluted and partitioned into a 96-well polystyrene microplate with ˜10^5 colony forming units (CFU) per well (90 μl aliquots). After treatment with 10 μl of peptide solutions at various concentrations, microplates were incubated at 37° C. overnight and read on a ChroMate® 4300 Microplate Reader at 630 nm (GMI, Ramsey, Minn.). The medium was used as a blank where no bacteria should grow.

E. faecium ATCC51559 = type: cell-based, Enterococcus faecium; details: ATCC51559
Procedure: as §1, §2

E. coli ATCC 25922 = type: cell-based, Escherichia coli; details: ATCC 25922
Procedure: as §1, §2

S. aureus USA300 LAC = type: cell-based, Staphylococcus aureus; details: USA300
Procedure: as §1, §2

P. aeruginosa PAO1 = type: cell-based, Pseudomonas aeruginosa
Procedure: as §1, §2

ESKAPE pathogens = type: cell-based
Procedure: as §1, §2

E. cloacae B2366-12 = type: cell-based, Enterobacter cloacae; details: B2366-12
Procedure: as §1, §2

S. aureus USA300 [1] = type: cell-based, Staphylococcus aureus
Procedure: (§3) The bacterial strains used here included Gram-positive bacteria Staphylococcus aureus USA300 LAC, Staphylococcus epidermidis 1457, Bacillus subtilis 168, and Gram-negative Escherichia coli K12. Clinical strains of S. aureus, including Mu50, UAMS-1 and Newman, were also evaluated.
(§4) The antimicrobial activity of peptides was evaluated using a standard broth microdilution protocol (Wang, G. (2008) J. Biol. Chem., 283:32637-32643). In brief, exponential phase bacteria at 10^6 CFU were incubated with serially diluted peptides overnight for ˜20 hours at 37° C. The plates were read on a ChroMate® 4300 Microplate Reader at 630 nm (GMI, Ramsey, Minn.). […] In addition, the effects of human serum (up to 10%), pH (6.8, 7.4 and 8.0) and 150 mM sodium chloride (NaCl) on MICs against S. aureus USA300 were also evaluated (Mishra et al. (2015) RSC Advances 5:59758-59769).

proteinase K = molecular target: T1, proteinase K (Parengyodontium album, UniProt P06873); experiment: Peptide stability to proteases (SDS-PAGE); type: in vitro ADME, fungal; details: peptide:protease 40:1, 24 hours, 37° C.
T1 construct: purchased Sigma or Fisher
T1 sequence (P06873 106-384): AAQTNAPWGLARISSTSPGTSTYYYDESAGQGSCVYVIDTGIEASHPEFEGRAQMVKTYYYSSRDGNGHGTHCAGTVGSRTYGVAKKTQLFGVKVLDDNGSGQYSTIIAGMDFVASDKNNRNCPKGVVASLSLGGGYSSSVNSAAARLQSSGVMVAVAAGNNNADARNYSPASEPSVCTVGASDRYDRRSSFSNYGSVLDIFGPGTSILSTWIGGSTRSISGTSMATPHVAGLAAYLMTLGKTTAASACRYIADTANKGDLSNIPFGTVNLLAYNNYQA
Procedure: (§5) When degraded, no peptide band could be detected on a 5% stacking/18% resolving tricine gel after 2-4 hours incubation at 37° C. Briefly, a solution (100 μL) containing 250 μM peptide and 6.25 μM protease (Sigma or Fisher) in 10 mM PBS buffer (pH 8) was incubated at 37° C. (peptide/protease molar ratio, 40:1). Aliquots (10 μL) of the reaction solutions were taken at 0, 6, and 24 hours and immediately mixed with 10 μL of 2× SDS loading buffer followed by boiling for 5 minutes to stop the reaction. […] After electrophoresis, the gel was stained by Brilliant Blue R-250 (Fisher) and destained to view the peptide bands.

S. aureus V8 protease = molecular target: T2, S. aureus V8 protease (Staphylococcus aureus, UniProt P0C1U8); type: in vitro ADME; details: peptide:protease 40:1, 24 hours, 37° C.
T2 construct: purchased Sigma or Fisher
Procedure: as §5

E. coli K12 = type: cell-based, Escherichia coli
Procedure: as §3, §4

B. subtilis 168 = type: cell-based, Bacillus subtilis
Procedure: as §3, §4

S. aureus USA300 [2] = type: cell-based, Staphylococcus aureus; remark: listed apart in the source
Procedure: The minimal bactericidal concentration (MBC) was determined by plating 50 μl of the content in the clear wells of the above MIC assays. MBC was determined on the petri dishes without bacterial colony formation after overnight growth (Wang et al. (2012) Biochemistry 51:653-664).

S. epidermidis 1457 = type: cell-based, Staphylococcus epidermidis
Procedure: as §3, §4

S. aureus Newman = type: cell-based, Staphylococcus aureus
Procedure: as §3, §4

S. aureus Mu50 = type: cell-based, Staphylococcus aureus
Procedure: as §3, §4

S. aureus UAMS-1 = type: cell-based, Staphylococcus aureus
Procedure: as §3, §4

MTS cytotoxicity assay [3] = type: cell-based; details: human, HeLa CCL-2 cells
Procedure: (§6) HeLa CCL-2 epithelial adenocarcinoma cells from American Type Culture Collection (ATCC) were maintained in DMEM high glucose media with 4 mM L-glutamine (NyClone) and 100 U/mL penicillin, 100 μg/mL streptomycin (pen/strep) (Life Technologies), and 10% (v/v) inactivated fetal bovine serum (FBS) (NyClone). Cells were grown in 5% CO2 at 37° C. and were detached from the culturing dish at 80% confluency using 0.025% trypsin-EDTA (NyClone) treatment. Peptide influence on the cell viability was estimated by using the MTS assay according to the manufacturer's protocol (MTS, CellTiter96® AQ One Solution Cell Proliferation Assay, Promega) with minor modifications and as described elsewhere (Mishra et al. (2015) RSC Advances 5:59758-59769). In short, cells were cultured in flat bottomed 96 well microtiter plates (Corning Life Science) at a seeding density of 20,000 cells/well. At confluence ˜100% achieved after 20-24 hours of cultivation, the cells were washed twice with 100 μL Dulbecco's Phosphate Buffered Saline (Life Technologies). Further, 90 μL of DMEM media with 10% FBS, pen/step was added before exposure to 10 μL of the peptide solution in the concentration range 12.5-100 μM. Plates were incubated at 37° C. After 1 hour, 10 μL MTS, CellTiter96® was added. Plates were further incubated for another 2 hours at 37° C. and finally, the absorbance was measured on ChroMate® reader (Awareness Technology) at 492 nm. Culture medium and 0.2% SDS were used as negative and positive controls, respectively.

[4] = tested on: Candida albicans ATCC 10231; type: cell-based; details: ATCC 10231, 48 h
Procedure: (§7) Fungal strains used in this study include Candida albicans ATCC 10231, C. glabrata ATCC 2001 and C. tropicalis ATCC 13803. The fungi were grown in Remel Dex broth (Thermo Fisher Scientific, KS). Antifungal assays were conducted essentially as described for antibacterial assays above, except for a higher starting density at an OD600 0.02 and a longer incubation time of ˜48 hours prior to microplate reading (Mishra et al. (2015) RSC Advances 5:59758-59769).

MTS cytotoxicity assay [5] = type: cell-based; details: human
Procedure: as §6
Human skin HaCaT (immortalized keratinocyte from AddexBio, T0020001) and kidney HEK293 cells were also cultivated for cytotoxicity evaluation of the peptides in a similar manner.

S. aureus USA300 [6] = experiment: Propidium iodide membrane permeation; type: cell-based, Staphylococcus aureus
Procedure: Fluorescence spectroscopy was also used to follow bacterial killing. In brief, a serially diluted 10× peptide (10 μL) was made in 96-well coming COSTAR microtiter plates. Propidium iodide (2 μL) was added at 50 μM to each well which was finally incubated with S. aureus USA300 bacteria (88 μL at a final OD600 ˜0.1) with continuous shaking at 100 rpm, 37° C. in a FLUOstar® Omega (BMG LABTECH Inc, NC) microplate reader. The plates were read every 5 minutes for a total duration of 2 hours with excitation and emission wavelengths at 584 nm and 620 nm respectively. Plots were made using averaged readings from duplicated experiments after subtraction of the media control.

Hemolytic assay = type: cell-based; details: red blood cells, hemolysis
Procedure: Hemolytic analysis of selected peptides was performed using an established protocol (Mishra et al. (2015) RSC Advances 5:59758-59769). Briefly, human blood cells (UNMC Blood Bank) were washed three times with phosphate buffer saline (PBS) and diluted to a 2% solution. After peptide treatment, incubation at 37° C. for one hour, and centrifugation at 13,000 rpm, aliquots of the supernatant were transferred to a fresh 96-well microplate. To assess peptide cytotoxicity, the amount of hemoglobin released was measured at 545 nm. The percent lysis was calculated by assuming 100% release when human blood cells were treated with 1% TRITON™ X-100, and 0% release when incubated with PBS buffer. The hemolytic assays using chicken, bovine, and porcine blood cells (Lampire Biological Laboratories, Inc.) were performed in the same manner.

C. tropicalis ATCC 13803 = type: cell-based, Candida tropicalis; details: ATCC 13803, 48 h
Procedure: as §7

C. glabrata ATCC 2001 = type: cell-based, Candida glabrata; details: ATCC 2001, 48 h
Procedure: as §7

MIC AB (A. baumannii B2367-12): 4.67 ± 2.2 µM (≈ 9.55 µg/mL)
MIC EF (E. faecium ATCC51559): 3.1 ± 0 µM (≈ 6.34 µg/mL)
MIC EC (E. coli ATCC 25922): 4.67 ± 2.2 µM (≈ 9.55 µg/mL)
MIC SA (S. aureus USA300 LAC): 4.67 ± 1.8 µM (≈ 9.55 µg/mL)
MIC PA (P. aeruginosa PAO1): 50 µM (≈ 102 µg/mL)
MIC range against almost all / most of the tested strains (ESKAPE pathogens): 3.1 to 12.5 µM
MIC ECl (E. cloacae B2366-12): 12.5 ± 0 µM (≈ 25.6 µg/mL)
Structure (SMILES): CC[C@H](C)[C@H](NC(=O)[C@H](CCCNC(=N)N)NC(=O)[C@H](CCC(N)=O)NC(=O)[C@@H](NC(=O)[C@@H](NC(=O)[C@H](CCCNC(=N)N)NC(=O)[C@H](CCCCN)NC(=O)[C@@H](N)Cc1ccccc1)[C@@H](C)CC)C(C)C)C(=O)N[C@@H](CCCCN)C(=O)N[C@@H](CC(=O)O)C(=O)N[C@@H](Cc1ccccc1)C(=O)N[C@@H](CC(C)C)C(=O)N[C@@H](CCCNC(=N)N)C(=O)N[C@@H](CC(N)=O)C(=O)N[C@@H](CC(C)C)C(=O)N[C@H](C(N)=O)C(C)C [FK-16, FKRIVQRIKDFLRNLV, reference compound] (H-FKRIVQRIKDFLRNLV-NH2; N-terminus and C-terminus assumed)

Structure (SMILES): CC[C@@H](C)[C@@H](NC(=O)[C@@H](CCCCN)NC(=O)[C@@H](CCCNC(=N)N)NC(=O)[C@@H](CC(C)C)NC(=O)[C@@H](Cc1c[nH]c2ccccc12)NC(=O)[C@@H](Cc1c[nH]c2ccccc12)NC(=O)[C@H](N)Cc1c[nH]c2ccccc12)C(=O)N[C@H](Cc1c[nH]c2ccccc12)C(N)=O [TetraF2W-RK-d, wwwlrkiw] (H-[dW][dW][dW][dL][dR][dK][dI][dW]-NH2; N-terminus and C-terminus assumed)
MIC S. aureus USA300 (S. aureus USA300 [1]; USA300): 3.1 µM (≈ 3.94 µg/mL)
stability to fungal proteinase K (proteinase K): remained stable
stability to S. aureus V8 protease (S. aureus V8 protease): remained stable
MIC E. coli K12 (E. coli K12): 6.2 µM (≈ 7.89 µg/mL)
MIC E. coli K12 (E. coli K12; K12): 6.2 µM (≈ 7.89 µg/mL)
MIC B. subtilis 168 (B. subtilis 168): 3.1 µM (≈ 3.94 µg/mL)
MBC S. aureus USA300 (S. aureus USA300 [2]; USA300): 12.5 µM (≈ 15.9 µg/mL)
MIC S. epidermidis 1457 (S. epidermidis 1457): 6.2 µM (≈ 7.89 µg/mL)

Structure (SMILES): CC[C@H](C)[C@H](NC(=O)[C@H](CCCCN)NC(=O)[C@H](CCCCN)NC(=O)[C@H](CC(C)C)NC(=O)[C@H](Cc1c[nH]c2ccccc12)NC(=O)[C@H](Cc1c[nH]c2ccccc12)NC(=O)[C@@H](N)Cc1c[nH]c2ccccc12)C(=O)N[C@@H](Cc1c[nH]c2ccccc12)C(N)=O [TetraF2W-KK, WWWLKKIW] (H-WWWLKKIW-NH2; N-terminus and C-terminus assumed)
Antimicrobial activity (MIC) Newman (S. aureus Newman): 6.2 µM
Antimicrobial activity (MIC) Mu50 (S. aureus Mu50): 6.2 µM
Antimicrobial activity (MIC) 150 mM NaCl (S. aureus USA300 [1]; USA300): 3.1 to 6.2 µM
Antimicrobial activity (MIC) USA300 (S. aureus USA300 [1]; USA300): 3.1 to 6.2 µM
MIC S. aureus USA300 (S. aureus USA300 [1]; USA300): 3.1 to 6.2 µM
Antimicrobial activity (MIC) pH 6.8 (S. aureus USA300 [1]; USA300, pH 6.8): 12.5 μM
Antimicrobial activity (MIC) Normal medium (pH 7.4) (S. aureus USA300 [1]; USA300, pH 7.4): 3.1-6.2 μM
Antimicrobial activity (MIC) pH 8 (S. aureus USA300 [1]; USA300, pH 8): 3.1 μM
Antimicrobial activity (MIC) UAMS-1 (S. aureus UAMS-1): 6.2 µM
CC50 at 1 hour (MTS cytotoxicity assay [3]): 70 µM
MIC Candida albicans [4]: 6.2 µM (≈ 7.72 µg/mL)
MIC E. coli K12 (E. coli K12; K12): 12.5 to 25 µM
MIC B. subtilis 168 (B. subtilis 168): 6.2 µM (≈ 7.72 µg/mL)
CC50 at 1 hour (MTS cytotoxicity assay [5]; HEK293 cells): 50 µM
CC50 at 1 hour (MTS cytotoxicity assay [5]; HaCaT cells): 50 µM
propidium iodide fluorescence change after treatment (S. aureus USA300 [6]): least potent
CC50 at 1 hour (Hemolytic assay; chicken, read-out: LC50 Chicken RBCs): 50 µM
CC50 at 1 hour (Hemolytic assay; human, read-out: LC50 Human RBCs): 40 µM
CC50 at 1 hour (Hemolytic assay; pig, read-out: LC50 Porcine RBCs): 55 µM
MBC S. aureus USA300 (S. aureus USA300 [2]): > 25 µM
MBC S. aureus USA300 (S. aureus USA300 [2]; USA300): >25 µM
MIC Candida tropicalis (C. tropicalis ATCC 13803): 1.6 µM (≈ 1.99 µg/mL)
MIC S. epidermidis 1457 (S. epidermidis 1457): 6.2 µM (≈ 7.72 µg/mL)
MIC Candida glabrata (C. glabrata ATCC 2001): 6.2 to 12.5 µM
